Laboratory results: US6875775B2, “Triphenylalkene derivatives and their use as selective estrogen receptor modulators” (Hormos Medical Oy LTD, priority 1999, dated 2005)
Where two headings read alike, the source gives them in different places.

Key:
MCF-7 cells = assay: cells; format: cell-based; conditions: for Killing of MCF-7 cells at the highest investigated concentration (in words): 10 μM, compounds with weak hormonal activity; for cytotoxicity at 10 µM / inhibition at 1 µM / Emax: Homo sapiens, MCF7, 96 h; for cytotoxicity at 10 µM: 10 μmol/l, read-out: Maximal Cell Kill (% fraction of dead cells); for inhibition at 1 µM: read-out: Antagonism at 1 μM (% of full antagonism); for Emax: maximal growth stimulus at any concentration, 4 days, read-out: Maximal Agonism (% of E2)
Protocol: Evaluation of Estrogenic and Antiestrogenic Properties of Compounds in MCF-7 Cell Growth Experiments in Vitro
For experiments involving hormone or anti-hormone treatment, the cells in exponential growth phase were precultivated in the absence of estradiol for one day. […] After the incubation period the medium was removed. The exposure to study drugs was started immediately by adding fresh medium with 5% stripped serum. Half of the cells were grown with estradiol, half without estradiol. Study compounds (dissolved in ethanol in 0.01 M concentration and diluted with the growth medium as appropriate) were added. The final concentrations of the compounds were 1, 10, and 100 nM, and 1 and 10 μM. The cells were incubated for four days.
This method allows evaluation of estrogenicity based on the ability of the compounds to stimulate the growth of the estrogen-dependent cells in the absence of estradiol.
Estrogenicity was estimated by comparing the maximal growth stimulus (at any concentration) of study compound as percent from growth stimulus by estradiol (100% stimulus). […] At high concentrations molecules may also show toxicity. Toxicity was estimated as the fraction of dead cells (i.e. 100% means that all cells have died during the exposure).

[1] = system: ovariectomized (OVX) rats; assay: Serum cholesterol level in ovariectomized (OVX) rats after 4 weeks dosing; format: in vivo, rat; conditions: for Effect on cholesterol (in words): OVX rats, Table 4; for Cholesterol level (mmol/l) in serum: OVX rat, 4 weeks dosing
Excerpt: Estimation of Effects to Cholesterol and Bone
(§1) Compounds were given p.o. to female rats for 4 or 5 weeks daily. At the end a blood sample was taken. Serum was separated by centrifugation and frozen until analyzed for total amount of cholesterol. Bone samples were taken from vertebra and tibia. Physical strength of the bones was studied as described by Peng et al, 1994.

[2] = Overall hormonal profile summarised from Tables 2, 3 and 4
immature rat uterus = assay: 3 day uterotropic assay in immature female rats; conditions: Table 3
Protocol: Estimation of Estrogenicity and Antiestrogenicity in Vivo
The results have been shown in Table 3 both as per cent of estrogen stimulation (100%), and as inhibition of estrogen action (full inhibition is 100%). The values are given at two dose levels, low i.e. 3-5 mg/kg and high i.e. 10-50 mg/kg. Estrogenic activity can be estimated also after a 4 weeks' treatment of ovariectomized rats based on the uterine size.

ovariectomized rats [3] = assay: Size of the uterus after 4 weeks treatment of ovariectomized rats; format: in vivo, rat
ovariectomized rats [4] = assay: Ash weight of tibial epiphyses in ovariectomized rats after 4 weeks dosing; format: in vivo, rat; conditions: OVX rats
Excerpt: as §1, with “1994. The assessments of the bone included:” for “1994.”
Ash Weight of Tibial Epiphyses
Epiphyses of one tibia was carefully prepared and burned. Samples were burned to remove water and organic material. Ash weight relates to the mineral content of the bone. In addition, bone samples were taken to study the histomorphometry. In some cases the bone formation was studied by injecting tetracycline (50 mg/kg i.p. 10 days before autopsy) and calcein (20 mg/kg i.p. 3 days before autopsy). The method is based on permanent binding of tetracycline into growing bone and its detection by fluorescence (Peng et al, 1994).

ovariectomized rats [5] = assay: Maximal load of femoral neck (cantilever bending test) in ovariectomized rats after 4 weeks dosing; format: in vivo, rat; conditions: OVX rats
Protocol: as §1, with “1994. The assessments of the bone included:” for “1994.”
Mechanical Testing of Bones
The mechanical testing of bones was carried out by materials testing machine, constructed in-house at Oulu University (Technical Services Dcpartment of the Medical Faculty). The testing machine is based on lever arm principle. One end of a steel lever is fixed. The pressing rod and the driving motor are connected to the lever arm with a moment ratio of 12.5 cm/50 cm=¼. As a driving motor a linear actuator (SEY 10 Magnetic Elektromotoren AG, Switzerland) is used to obtain constant vertical movement (0.62 cm/s). The interchangeable compression head is mounted on the pressing rod for different tests transmitting compressive force to the specimen, and moving at a constant speed of 0.155 mm/s up to a maximal load capacity of 1200 N. The pressing rod is guided via an axial ball bearing to keep the movement vertical. Compressive force is measured by a temperature-compensated force sensor, which is attached to the stationary part of the compression stage. The measuring electronics include sensor calibration and adjustments.
The maximal load on the femoral neck was measured by the cantilever bending test. The supporter for the bone was a thick polymethyl methacrylate plate in which several holes of different sizes were drilled. On one side of each hole a groove was engraved for the […] trochanter of the femur. The femur was cut exactly between the middle and lower third of the shaft. The bone was inserted perpendicularly and tightly into a suitable hole on the supporter. The lesser trochanter of each bone touched the surface of the plate. This procedure allowed rapid and stable fixation of the bone without using any additional embedding materials. […]

[6] = system: DMBA-induced rat mammary gland cancer; assay: Antitumor activity in DMBA-induced rat mammary gland cancer model; format: in vivo
Protocol: Estimation of Antitumor Activity in Vivo
Antitumor activity was estimated by using DMBA (dimethylbenz[a] anthracene) model. One single peroral dose of DMBA (12 mg) initiates mammary gland carcinogenesis. New compounds were administered for 5 weeks when palpable tumors appeared. Size of the tumors and number of new tumors were carefully estimated once a week until termination. The model has been described in detail by Kangas et al, 1986. The growth of the tumors was measured once a week. All tumors were classified according to their growth properties to progressing, stable and regressing ones. Disappeared tumors were separately calculated. The tumors were considered to be progressing, if the tumor volume grew more than 8-fold during the 5 weeks dosing period, and regressing if the tumor volume decreased to one fourth or less from the volume in the beginning. If tumor volume changed less or remained unchanged, the tumors were considered to be stable.

[7] = system: intact and castrated male rats; assay: Weight of the prostate gland in intact and castrated male rats after 4 weeks daily treatment; format: in vivo, rat; conditions: for Weight of the prostate gland (g) mean and sd: 4 weeks daily
[8] = 15 mg/kg p.o. daily for 5 weeks

CN(C)CCOc1ccc(/C(=C(/CCCl)c2ccccc2)c2ccc(Cl)cc2)cc1 [No. 3, (E)-(2-{4-[4-Chloro-1-(4-chlorophenyl)-2-phenylbut-1-enyl]phenoxy}ethyl)-dimethylamine]
Killing of MCF-7 cells at the highest investigated concentration (in words) (MCF-7 cells): kill MCF-7 cells (human breast cancer cells) effectively | Effect on cholesterol (in words) [1]: decrease cholesterol | Estrogenic and antiestrogenic action (in words) [2]: weak estrogenic and no antiestrogenic action

CN(C)CCOc1ccc(/C(=C(/CCCl)c2ccccc2)c2ccc(F)cc2)cc1 [No. 1, (E)-(2-{4-[4-Chloro-1-(4-fluorophenyl)-2-phenylbut-1-enyl]phenoxy}ethyl)-dimethylamine]
Killing of MCF-7 cells at the highest investigated concentration (in words) (MCF-7 cells): kill MCF-7 cells (human breast cancer cells) effectively | Estrogenic action in vitro (in words) (MCF-7 cells; in vitro, Table 2): no estrogenic action in vitro | Estrogenic action in vivo / in the uterus (in words) (immature rat uterus): weak estrogen in vivo

OCCOCCOc1ccc(/C(=C(/CCCl)c2ccccc2)c2ccccc2)cc1 [No. 19, (Z)-2-{2-[4-(4-Chloro-1,2-diphenylbut-1-enyl)phenoxy]ethoxy}ethanol]
Killing of MCF-7 cells at the highest investigated concentration (in words) (MCF-7 cells): kill MCF-7 cells (human breast cancer cells) effectively | cytotoxicity at 10 µM (MCF-7 cells; With estradiol (E2)): 50% | cytotoxicity at 10 µM (MCF-7 cells; Without estradiol (E2)): 14% | inhibition at 1 µM (MCF-7 cells; With estradiol (E2)): 21% | Emax (MCF-7 cells; Without estradiol (E2)): 14% | Uterine size (ovariectomized rats [3]; 1.0 mg/kg peroral daily): 0.192 ± 0.029 g | Uterine size (ovariectomized rats [3]; 5.0 mg/kg peroral daily): 0.221 ± 0.023 g | Cholesterol level (mmol/l) in serum ([1]; 0.3 mg/kg): 3.6 ± 0.4 mmol/L | Cholesterol level (mmol/l) in serum ([1]; 10 mg/kg): 3.9 ± 0.6 mmol/L | Effect on cholesterol (in words) [1]: decrease cholesterol | Ash weight (mg) of tibial epiphyses (ovariectomized rats [4]; 1.0 mg/kg p.o.): 34.8 ± 1.3 mg | Ash weight (mg) of tibial epiphyses (ovariectomized rats [4]; 5.0 mg/kg p.o.): 34.9 ± 1.9 mg | Maximal load (N) of femoral neck (ovariectomized rats [5]; 1.0 mg/kg p.o.): 81.6 ± 7.9 N | Maximal load (N) of femoral neck (ovariectomized rats [5]; 5.0 mg/kg p.o.): 85.7 ± 17.0 N | Disappeared tumors (per cent of total tumor number) ([6]; 3 mg/kg p.o. daily for 5 weeks): 20% | Growing tumors (per cent of total tumor number) ([6]; 3 mg/kg p.o. daily for 5 weeks): 20% | Regressing tumors (per cent of total tumor number) ([6]; 3 mg/kg p.o. daily for 5 weeks): 40% | Stable tumors (per cent of total tumor number) ([6]; 3 mg/kg p.o. daily for 5 weeks): 20% | Disappeared tumors (per cent of total tumor number) [6, 8]: 14% | Growing tumors (per cent of total tumor number) [6, 8]: 14% | Regressing tumors (per cent of total tumor number) [6, 8]: 57% | Stable tumors (per cent of total tumor number) [6, 8]: 14% | Anticancer efficacy in vivo compared with tamoxifen and toremifene (in words) ([6]; DMBA-induced rat mammary tumor model, even at very low doses): more effective anticancer drug in vivo | Weight of the prostate gland (g) mean and sd ([7]; 0.5 mg/kg to castrated rats): 0.59 ± 0.07 g | Weight of the prostate gland (g) mean and sd ([7]; 0.5 mg/kg, intact male rats): 2.66 ± 0.21 g | Weight of the prostate gland (g) mean and sd ([7]; 5.0 mg/kg to castrated rats): 0.62 ± 0.07 g | Weight of the prostate gland (g) mean and sd ([7]; 5.0 mg/kg, intact male rats): 1.58 ± 0.5 g | Estrogenic action on the weight of the prostate gland (in words) ([7]; at doses which are active in DMBA-induced mammary tumor model): does not show any estrogenic action | Estrogenic and antiestrogenic action (in words) [2]: weak estrogenic and no antiestrogenic action

OCCSc1ccc(/C(=C(/CCCl)c2ccccc2)c2ccccc2)cc1 [No. 36, (Z)-2-[4-(4-Chloro-1,2-diphenyl-but-1-enyl)-phenylsulfanyl]ethanol]
cytotoxicity at 10 µM (MCF-7 cells; With estradiol (E2)): 37% | cytotoxicity at 10 µM (MCF-7 cells; Without estradiol (E2)): 17% | inhibition at 1 µM (MCF-7 cells; With estradiol (E2)): 13% | Emax (MCF-7 cells; Without estradiol (E2)): 8% | Estrogenic and antiestrogenic action (in words) [2]: weak estrogenic and no antiestrogenic action

CN(C)CCOc1cccc(/C(=C(/CCCl)c2ccccc2)c2ccccc2)c1 [No. 33, (Z)-{2-[3-(4-Chloro-1,2-diphenylbut-1-enyl)phenoxy]ethyl}dimethylamine]
Emax (MCF-7 cells; Without estradiol (E2)): 20% | Cytotoxic action (in words) (MCF-7 cells; Table 2): weak | Effect on cholesterol (in words) [1]: decrease cholesterol

OCC(O)COc1ccc(/C(=C(/CCCl)c2ccccc2)c2ccc(Cl)cc2)cc1 (centres unmarked) [No. 10, (E)-3-{4-[4-Chloro-1-(4-chlorophenyl)-2-phenyl-but-1-enyl]phenoxy}propane-1,2-diol]
cytotoxicity at 10 µM (MCF-7 cells; With estradiol (E2)): 35% | cytotoxicity at 10 µM (MCF-7 cells; Without estradiol (E2)): 7% | inhibition at 1 µM (MCF-7 cells; With estradiol (E2)): 0% | Emax (MCF-7 cells; Without estradiol (E2)): 34% | Estrogenic and antiestrogenic action (in words) [2]: weak estrogenic and no antiestrogenic action

OCC(O)COc1ccc(/C(=C(/CCCl)c2ccccc2)c2ccccc2)cc1 (centres unmarked) [No. 20, (Z)-3-[4-(4-Chloro-1,2-diphenyl-but-1-enyl)phenoxy]propane-1,2-diol]
cytotoxicity at 10 µM (MCF-7 cells; With estradiol (E2)): 60% | cytotoxicity at 10 µM (MCF-7 cells; Without estradiol (E2)): 5% | inhibition at 1 µM (MCF-7 cells; With estradiol (E2)): 25% | Emax (MCF-7 cells; Without estradiol (E2)): 8% | Uterine size (ovariectomized rats [3]; 1.0 mg/kg peroral daily): 0.133 ± 0.032 g | Cholesterol level (mmol/l) in serum ([1]; 1 mg/kg): 3.3 ± 0.6 mmol/L | Cholesterol level (mmol/l) in serum ([1]; 5 mg/kg): 2.3 ± 0.4 mmol/L | Effect on cholesterol (in words) [1]: decrease cholesterol | Ash weight (mg) of tibial epiphyses (ovariectomized rats [4]; 3.0 mg/kg p.o.): 35.0 ± 3.2 mg | Maximal load (N) of femoral neck (ovariectomized rats [5]; 3.0 mg/kg p.o.): 81.7 ± 15.2 N | Estrogenic and antiestrogenic action (in words) [2]: weak estrogenic and no antiestrogenic action
